The values that follow come from ChEMBL document CHEMBL1130389, “Synthesis and ligand binding studies of 4'-iodobenzoyl esters of tropanes and piperidines at the dopamine transporter” (J Med Chem, 1997).

Each structure is given as a SMILES string.

The target in the test is Sodium-dependent dopamine transporter (Rattus norvegicus, UniProt P23977). In words: Compound was tested for inhibitory activity to displace [3H]WIN-35428 at dopamine transporter in Rat Striatal Membranes.
Chain of Sodium-dependent dopamine transporter (P23977 whole entry): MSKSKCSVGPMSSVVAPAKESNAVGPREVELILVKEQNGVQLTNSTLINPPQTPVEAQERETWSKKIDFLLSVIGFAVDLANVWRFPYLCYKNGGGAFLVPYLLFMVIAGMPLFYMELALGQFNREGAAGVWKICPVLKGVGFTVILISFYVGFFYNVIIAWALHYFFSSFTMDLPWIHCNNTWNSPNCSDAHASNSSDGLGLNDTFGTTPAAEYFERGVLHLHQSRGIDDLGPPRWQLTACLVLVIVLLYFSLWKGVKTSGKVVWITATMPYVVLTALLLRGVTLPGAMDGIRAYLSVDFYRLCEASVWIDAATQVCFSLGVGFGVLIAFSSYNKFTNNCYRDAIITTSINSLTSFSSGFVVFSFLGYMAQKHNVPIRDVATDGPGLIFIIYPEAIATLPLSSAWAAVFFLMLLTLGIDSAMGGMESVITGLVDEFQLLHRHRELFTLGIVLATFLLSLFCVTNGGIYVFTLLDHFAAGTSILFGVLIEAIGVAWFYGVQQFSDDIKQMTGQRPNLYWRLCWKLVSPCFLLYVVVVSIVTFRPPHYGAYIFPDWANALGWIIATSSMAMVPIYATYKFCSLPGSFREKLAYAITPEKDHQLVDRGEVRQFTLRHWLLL
For the molecule `COC(=O)[C@H]1[C@@H](OC(=O)c2ccccc2OC(C)=O)CC2CC[C@H]1N2C`, the IC50 is 69.5 nM.

In the case of `COC(=O)[C@H]1[C@@H](OC(=O)c2ccccc2O)C[C@H]2CC[C@H]1N2C`, the IC50 turned out to be 25.2 nM. Take `COC(=O)[C@H]1[C@@H](OC(=O)c2ccc(I)cc2O)C[C@H]2CC[C@H]1N2C`: the IC50 is 215 nM.

`COC(=O)[C@@H]1C2CC[C@H](C[C@@H]1OC(=O)c1ccc(O)cc1)N2C` had an IC50 of 153 nM. Under `COC(=O)C1CN(C)CC[C@@H]1OC(=O)c1ccc(I)cc1` (some centres not stated) stands 8060 nM.

In turn, `CN1CCC(OC(=O)c2ccc(I)cc2)CC1` displayed an IC50 of 11600 nM.

For `COC(=O)[C@@H]1C2CC[C@H](C[C@@H]1OC(=O)c1cccc(O)c1)N2C`, the IC50 is 1180 nM.
